Nine molecules from patent US8044028B2, “Oligopeptides and their use in cosmetics” (Cognis France S.A.S., priority 2004, dated 2011) can be followed below.

One test has as its system human keratinocytes. Briefly: Effects on the growth of human primary keratinocytes (cellular DNA content, ethidium bromide fluorescence). It is filed as cell-based. Particulars: for DNA after culture for 4-5 days: % based on control (standard medium without additives = 100), average of 3 assays in triplicate; for growth of human keratinocytes (result in words): keratinocytes cultivated from biopsies of adult subjects, activity still detected after 5 days without changing medium; for DNA after culture for 3 days: % based on control = 100. The procedure: The aim of this test was to analyse the revitalizing and regenerating activities of oligpopeptides according to the invention on human keratinocyte cultures in vitro.
Human keratinocytes were obtained by trypsinization of skin biopsies. They were incubated in standard medium for cell cultures with foetal calf serum (FCS) and growth factors (EGF 10 ng/ml). After cultivation for 2 days at 37° C. and a CO2 content of 5%, the medium was replaced by standard medium with varying concentrations of peptides. […] The fluorescence was determined using a fluorimeter (excitation at 538 nm and emission at 590 nm). The foetal calf serum forms a positive control because it comprises many growth factors, such as, for example, IGF (insulin-like growth factor) and PDGF (platelet derived growth factor).
The results are shown in Table 1 and 2 as the average value from 3 assays in triplicate in % based on a control in which the standard medium comprised no additives.

A further test concerns syndecan-1. Briefly: Stimulation of the synthesis of syndecan-1 on human keratinocytes (immunocytochemistry, image analysis). Particulars: keratinocyte culture, biopsies of adult subjects. It is filed as cell-based. The method, then: Monoclonal antibody anti-syndecan-1 and secondary antibody FITC conjugated were obtained from TEBU, Le Perray en Yvelines and BIO-RAD, Marnes-la-Coquette; KGF (Keratinocyte Growth Factor) (positive control) was obtained from SIGMA, L′Isle d'Abeau Chesnes.
Human keratinocytes were seeded in DMEM standard medium for 2 days at 37° C., CO2=5%. Then, N-Acetyl-Pro-Pro-Tyr-Leu (Seq. ID No. 375) or positive control KGF are introduced and after 5 days of incubation at 37° C., CO2=5%, the synthesis of syndecan-1 was evaluated on glass slides by immunocytochemistry. Quantification of the staining was carried out by image analysis.
The results are shown in table 3 as the mean of the sum±SEM of the product of number of pixels by green detected values (arbitrary unit).

No end group written: not given here. *: point of attachment. Palmitoyl = CCCCCCCCCCCCCCCC(=O)*

For the molecule “Arg-Arg-Arg-Pro-Arg (RRRPR; peptide derived from cathelicidin PR-39) [Example 2, R1=H, R2=OH]”, the entries for the “DNA after culture for 4-5 days” value with human keratinocytes (0.001 % (w/v) peptide) and with human keratinocytes (0.003 % (w/v) peptide) were 119 +/− 6% and 126 +/− 8%, respectively. The “growth of human keratinocytes (result in words)” value (from here on “growth of human keratinocytes”) in the test on human keratinocytes is “stimulate the growth of human keratinocytes”.
As to “Arg-Pro-Pro-Tyr-Leu (RPPYL; peptide derived from cathelicidin PR-39) [Example 3, R1=H, R2=OH]”, the “DNA after culture for 4-5 days” value in the test on human keratinocytes (0.001 % (w/v) peptide) is 97 +/− 1%; in the test with human keratinocytes (0.003 % (w/v) peptide), 118 +/− 10%. Further, in the test with human keratinocytes, the “growth of human keratinocytes” value is “stimulate the growth of human keratinocytes”.
For the molecule “N-Acetyl-Pro-Pro-Tyr-Leu (Ac-PPYL) [[AA] is Pro-Pro-Tyr-Leu, R1 is Acetyl, and R2 is OH]”, the “syndecan-1 expression / synthesis in human keratinocytes (result in words)” value in the test with syndecan-1 is given as “stimulates the synthesis of syndecan-1”.
Take “N-Palmitoyl-Pro-Pro-Tyr-Leu (Palmitoyl-PPYL) [Example 7, [AA] is Pro-Pro-Tyr-Leu, R1 is Palmitoyl and R2 is OH]”: the entries for the “DNA after culture for 3 days” value in the test on human keratinocytes (0.00005 % (w/v) peptide) and in the test with human keratinocytes (0.00015 % (w/v) peptide) were 136 +/− 13% and 135 +/− 8%, respectively.
In the case of “Pro-Pro-Tyr-Leu (PPYL; peptide derived from cathelicidin PR-39) [Example 4, R1=H, R2=OH]”, the “DNA after culture for 4-5 days” value is on record as 150 +/− 26% in the test with human keratinocytes (0.001 % (w/v) peptide) and 166 +/− 7% in the test with human keratinocytes (0.003 % (w/v) peptide). Further, the “growth of human keratinocytes” value with human keratinocytes is “stimulate the growth of human keratinocytes”.
The matching figures for “Pro-Tyr-Leu-Pro-Arg (PYLPR; peptide derived from cathelicidin PR-39) [Example 5, R1=H, R2=OH]”: 118 +/− 3%, 112 +/− 5% and “stimulate the growth of human keratinocytes”.
The matching figures for RRRPRPPYLPRPRPP [Example 1]: 124 +/− 15%, 131 +/− 11% and “stimulate the growth of human keratinocytes”.
The matching figures for Tyr-Leu-Pro-Arg-Pro [Example 6]: 110 +/− 6%, 146 +/− 24% and “stimulate the growth of human keratinocytes”.

B1: KGF: KGF (Keratinocyte Growth Factor) (positive control), obtained from SIGMA (protein, UniProt P21781 32-194, looked up)
Fibroblast growth factor 7: CNDMTPEQMATNVNCSSPERHTRSYDYMEGGDIRVRRLFCRTQWYLRIDKRGKVKGTQEMKNNYNIMEIRTVAVGIVAIKGVESEFYLAMNKEGKLYAKKECNEDCNFKELILENHYNTYASAKWTHNGGEMFVALNQKGIPVRGKKTKKEQKTAHFLPMAIT
Take B1: in the test on syndecan-1, the “syndecan-1 expression / synthesis in human keratinocytes (result in words)” value was “induced an increase of syndecan-1 expression”.
